PubChem BioAssay (NCI)
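48-hour exposure; five concentrations; linearly interpolated endpoints. Abbreviation: GI50, concentration required for 50% inhibition of growth. The concentration for full growth arrest is given as TGI.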

What was measured:
Experiment in all cases: DTP human tumour cell line panel, 48 h; in the data active means GI50 below about 0.43 µM; inactive means the rest
[1] = tested on: 786-0 renal
[2] = tested on: A498 renal
[3] = tested on: A549 NSCLC
[4] = tested on: ACHN renal
[5] = tested on: BT-549 breast
[6] = tested on: CCRF-CEM leukemia
[7] = tested on: COLO 205 colon
[8] = tested on: DU-145 prostate
[9] = tested on: EKVX NSCLC
[10] = tested on: HCC-2998 colon
[11] = tested on: HCT-116 colon
[12] = tested on: HCT-15 colon
[13] = tested on: HL-60(TB) leukemia
[14] = tested on: HOP-62 NSCLC
[15] = tested on: HOP-92 NSCLC
[16] = tested on: HS 578T breast
[17] = tested on: HT29 colon
[18] = tested on: IGROV1 ovarian
[19] = tested on: K-562 leukemia
[20] = tested on: KM12 colon
[21] = tested on: LOX IMVI melanoma
[22] = tested on: M14 melanoma
[23] = tested on: MALME-3M melanoma
[24] = tested on: MCF7 breast
[25] = tested on: MDA-MB-231 breast
[26] = tested on: MDA-MB-435
[27] = tested on: MOLT-4 leukemia
[28] = tested on: NCI-H226 lung
[29] = tested on: NCI-H23 lung
[30] = tested on: NCI-H460 lung
[31] = tested on: NCI-H522 lung
[32] = tested on: NCI/ADR-RES ovarian
[33] = tested on: OVCAR-3 ovarian
[34] = tested on: OVCAR-4 ovarian
[35] = tested on: OVCAR-5 ovarian
[36] = tested on: OVCAR-8 ovarian
[37] = tested on: PC-3 prostate
[38] = tested on: RPMI-8226 leukemia
[39] = tested on: RXF 393 renal
[40] = tested on: SF-268 CNS
[41] = tested on: SF-295 CNS
[42] = tested on: SF-539 CNS
[43] = tested on: SK-MEL-2 melanoma
[44] = tested on: SK-MEL-28 melanoma
[45] = tested on: SK-MEL-5 melanoma
[46] = tested on: SK-OV-3 ovarian
[47] = tested on: SN12C renal
[48] = tested on: SNB-19 CNS
[49] = tested on: SNB-75 CNS
[50] = tested on: SR leukemia
[51] = tested on: SW-620 colon
[52] = tested on: T-47D breast
[53] = tested on: TK-10 renal
[54] = tested on: U251 CNS
[55] = tested on: UACC-257 melanoma
[56] = tested on: UACC-62 melanoma
[57] = tested on: UO-31 renal

CSc1ccc(-c2ccccc(=O)c2O)cc1
10.8 µM: TGI [30]
67.3 µM: TGI [34]
35.2 µM: TGI [5]
50.9 µM: TGI [14]
71.1 µM: TGI [4]
28.3 µM: TGI [29]
83.8 µM: TGI [3]
24.6 µM: TGI [54]
17.1 µM: TGI [21]
5.2 µM: TGI [57]
32.9 µM: TGI [44]
31.4 µM: TGI [43]
> 100 µM: TGI [6] | TGI [7] | TGI [8] | TGI [10] | TGI [17] | TGI [18] | TGI [19] | TGI [20] | TGI [23] | TGI [24] | TGI [25] | TGI [26] | TGI [27] | TGI [35] | TGI [37] | TGI [40] | TGI [46] | TGI [48] | TGI [49] | TGI [51] | TGI [52] | TGI [53] | TGI [55]
99.7 µM: TGI [16]
18.3 µM: TGI [41]
inactive: GI50 [1] 447 nM | GI50 [2] 2710 nM | GI50 [3] 896 nM | GI50 [5] 873 nM | GI50 [7] 1980 nM | GI50 [8] 849 nM | GI50 [10] 594 nM | GI50 [11] 506 nM | GI50 [14] 540 nM | GI50 [15] 1610 nM | GI50 [16] 2770 nM | GI50 [17] 714 nM | GI50 [18] 427 nM | GI50 [19] 447 nM | GI50 [20] 508 nM | GI50 [23] 2410 nM | GI50 [25] 603 nM | GI50 [26] 646 nM | GI50 [28] 1680 nM | GI50 [29] 688 nM | GI50 [31] 470 nM | GI50 [35] 1640 nM | GI50 [37] 748 nM | GI50 [38] 428 nM | GI50 [39] 976 nM | GI50 [40] 625 nM | GI50 [41] 437 nM | GI50 [43] 966 nM | GI50 [44] 663 nM | GI50 [46] 551 nM | GI50 [47] 878 nM | GI50 [48] 570 nM | GI50 [49] 3.12 µM | GI50 [52] 985 nM | GI50 [53] 593 nM | GI50 [54] 568 nM | GI50 [55] 749 nM
26.9 µM: TGI [38]
11.6 µM: TGI [42]
73.3 µM: TGI [15]
14.5 µM: TGI [50]
19 µM: TGI [2]
active: GI50 [4] 397 nM | GI50 [6] 347 nM | GI50 [9] 280 nM | GI50 [12] 172 nM | GI50 [13] 283 nM | GI50 [21] 336 nM | GI50 [22] 347 nM | GI50 [24] 322 nM | GI50 [27] 348 nM | GI50 [30] 371 nM | GI50 [32] 278 nM | GI50 [33] 373 nM | GI50 [34] 271 nM | GI50 [36] 390 nM | GI50 [42] 394 nM | GI50 [45] 413 nM | GI50 [50] 404 nM | GI50 [51] 386 nM | GI50 [56] 397 nM | GI50 [57] 351 nM
64.8 µM: TGI [36]
29.7 µM: TGI [12] | TGI [33]
30.3 µM: TGI [47]
2920 nM: TGI [56]
16.2 µM: TGI [39]
3.96 µM: TGI [9]
1550 nM: TGI [13]
2120 nM: TGI [32]
12.6 µM: TGI [1]
5.05 µM: TGI [45]
37.4 µM: TGI [11]
37 µM: TGI [28]
55.9 µM: TGI [31]
2680 nM: TGI [22]
